In patent US9765308B2, “Aromatic prenyltransferase from cannabis” (priority 2009, dated 2017):

Key:
[1] = target: T1, CsPT1 (Cannabis sativa, UniProt A0A455ZIK6); assay: Prenyltransferase assay of recombinant CsPT1 with different aromatic acceptor substrates, geranyl diphosphate as prenyl donor; format: biochemical; conditions: for Product yield (%): yield of prenylated products by HPLC peak area, yield of cannabigerolic acid and 5-geranyl olivetolic acid set to 100%
Method: (§1) The prenyltransferase assay for CsPT1 comprised 100 mM Tris-HCl (pH 7.5), 0.2 mM olivetolic acid, 1 mM geranyl diphosphate and 5 mM MgCl2 in a final volume 100 μl. The reaction was initiated by addition of a 5 μl aliquot of microsomal preparation (64 μg protein), either from insect cells or yeast. After incubation for 1 h at 37° C., the reaction was terminated by addition of 10 μl 6 N HCl and extracted twice with 200 μl of ethyl acetate. The organic phase was evaporated to dryness and the residue dissolved in 50 μl of methanol. A 20 μl aliquot was analyzed by HPLC using a Waters 2695 system equipped with photodiode array detector on a Sunfire C18 reversed phase column 3.5 μm (4.6×150 mm) at a column temperature of 30° C. The mobile phase at 1 ml/min consisted of 50% water (containing 0.1% trifluoroacetic acid [TFA] [v/v]) and 50% acetonitrile over 10 min, 50% to 100% acetonitrile over 10 min, 100% acetonitrile to 50% acetonitrile over 1 min, 50% acetonitrile and 50% water over 4 min. The products were detected at 270 nm with photodiode array detection.
The activity of the recombinant CsPT1 was assayed to determine its use of different aromatic acceptor substrates using geranyl diphosphate as the prenyl donor substrate. […] In Table 3, Product yield is the yield of prenylated products as measured by HPLC peak area with the yield of cannabigerolic acid and 5-geranyl olivetolic acid set to 100%. Phlorisovalerophenone has not been detected in cannabis. It has been shown that cannabinoids with short side-chains exist in cannabis (e.g. tetrahydrocannabivarinic acid having a propyl side-chain instead of the pentyl side-chain of THC acid (Shoyama 1984). Given that CsPT1 accepts a variety of aromatic acceptor substrates, this enzyme likely is able to prenylate analogs of olivetolic acid that have differing side-chain length.

[2] = target: T1, CsPT1; assay: Prenyltransferase assay of recombinant CsPT1 with different prenyl diphosphate donor substrates; format: biochemical; conditions: FIG. 6; n=3
Method: FIG. 6 depicts use of different prenyl diphosphate donor substrates by recombinant CsPT1, where DMAPP is dimethylally diphosphate, IPP is isopenetnyl diphosphate, GPP is geranyl diphosphate, NPP is neryl diphosphate, FPP is farnesyl diphosphate, and GGPP is geranylgeranyl diphosphate. Bar represents mean+/− standard deviation (n=3).
as §1, with “detection. […]” for “detection.”

## Oc1ccc(C=Cc2cc(O)cc(O)c2)cc1 [Resveratrol]
[1]
  Geranylation of aromatic acceptor substrate by CsPT1: geranylated
  Product yield (%): 32%

## O=c1cc(-c2ccc(O)c(O)c2)oc2cc(O)cc(O)c12 [Luteolin]
[1]
  Product yield (%): 0%

## CCCCCc1cc(O)cc(O)c1C(=O)O [Olivetolic acid]
[1]
  Geranylation of aromatic acceptor substrate by CsPT1: geranylated
  Product yield (%): 100%

## O=C(O)Cc1cc(O)ccc1O [Homogentisic acid]
[1]
  Product yield (%): 0%

## CCCCCC(=O)Cc1cc(O)cc(=O)o1 [Hexanoyl triacetic acid lactone]
[1]
  Product yield (%): 0%

## O=C(/C=C/c1ccc(O)cc1)c1c(O)cc(O)cc1O [Chalconaringenin]
[1]
  Product yield (%): 0%

## CC(C)CC(=O)c1c(O)cc(O)cc1O [Phlorisovalerophenone]
[1]
  Geranylation of aromatic acceptor substrate by CsPT1: geranylated
  Product yield (%): 250%

## CCCCCc1cc(O)cc(O)c1 [Olivetol]
[1]
  Geranylation of aromatic acceptor substrate by CsPT1: geranylated
  Product yield (%): 30%

## COc1cc(-c2cc(=O)c3c(O)cc(O)cc3o2)ccc1O [Chrysoeriol]
[1]
  Product yield (%): 0%

## O=C1C[C@@H](c2ccc(O)cc2)Oc2cc(O)cc(O)c21 [Naringenin]
[1]
  Geranylation of aromatic acceptor substrate by CsPT1: geranylated
  Product yield (%): 31%

## Oc1cc(O)cc(O)c1 [Phloroglucinol]
[1]
  Product yield (%): 0%

## CC(C)=CCC/C(C)=C/COP(=O)(O)OP(=O)(O)O [geranyl diphosphate]
[2]
  Use as prenyl donor substrate: only used geranyl diphosphate (GPP) as a prenyl donor
